The values that follow come from patent US12440567B2, “Aqueous antibody formulation stabilized by antioxidants for parenteral administration” (AMGEN INC., priority 2007, dated 2025).

For one data set, the system named is EPO binding to D11. Description: Binding of EPO to D11 monoclonal antibody after UV-B exposure of the formulation. More on the design: species or system human. The following applies: for EPO binding activity to D11 during UV-B exposure: 0.1 mM antioxidant, UV-B up to 24 hours. The procedure:
For the examples below involving exposure to UVB radiation, each sample was exposed to UVB light (λ≈302 nm) for varying times, using a UVP 8W model UVLMS-38 lamp at 4° C. The formulations were then analyzed using size exclusion chromatography high pressure liquid chromatography (SEC-HPLC). Aggregation (measured via SEC-HPLC analysis) and binding (measured using CM5 gold sensor chips) were measured to determine the effect of the antioxidant on aggregation and bioactivity of the therapeutic protein. The binding activity of therapeutic protein to a ligand (e.g. to an antibody or binding partner, or, in cases where the therapeutic was an antibody, binding activity to the specific target antigen or to protein A) was determined as follows. […] The therapeutic protein-binding ligand of interest was injected until the desired immobilization level was achieved (above 5000 response units). Three different therapeutic protein-binding ligands were measured—Antibody A's target antigen, Protein A, and D11 (an antibody that binds to erythropoietin). […] The remaining activated groups were blocked with 1.0 M ethanolamine-HCl, pH 8.5. A standard curve was prepared by using native forms of the therapeutic protein of interest. Native forms of the therapeutic protein were diluted in HBS-EP buffer (pH 7.4) to concentrations between 1 and 5 μg/mL, and then injected on the column, prepared as described above to obtain a standard curve. At the end of each sample run, regeneration buffer was used to wash away any bound therapeutic protein in preparation for subsequent injections. Various UV-stressed antibody formulations were also diluted in HBS-EP buffer (pH 7.4) to a concentration within the standard curve region, and injected to quantitate the loss of bioactivity to its respective ligand-binding partner. […] The protein was exposed to the same conditions as Antibody A and Antibody B for up to 24 hours.

The conditions of data set [1]: cited from earlier work.
The subject of another data set is Antibody A (IgG1). Description: SEC-HPLC aggregation of Antibody A (IgG1) after UV-B exposure. It is filed as physicochemical. The following applies: for UV-B protection of Antibody A (aggregation, SEC-HPLC): Antibody A 1 mg/mL, pH 4.50 (glycolic, lactic acid) or pH 5.00 (citric acid), UV 1 hr. (Size exclusion chromatography separates by hydrodynamic size, large species first.)

The subject of data set [2] is Antibody A binding to its target antigen. Description: Binding of Antibody A to its target antigen (CM5 sensor chip) after UV-B exposure of the formulation. As to conditions: 20 mM antioxidant; pH 5.20 acetate buffer; 302 nm UV light over 24 hours. The procedure:
(§1) For the examples below involving exposure to UVB radiation, each sample was exposed to UVB light (λ≈302 nm) for varying times, using a UVP 8W model UVLMS-38 lamp at 4° C. The formulations were then analyzed using size exclusion chromatography high pressure liquid chromatography (SEC-HPLC). Aggregation (measured via SEC-HPLC analysis) and binding (measured using CM5 gold sensor chips) were measured to determine the effect of the antioxidant on aggregation and bioactivity of the therapeutic protein. The binding activity of therapeutic protein to a ligand (e.g. to an antibody or binding partner, or, in cases where the therapeutic was an antibody, binding activity to the specific target antigen or to protein A) was determined as follows. […] The therapeutic protein-binding ligand of interest was injected until the desired immobilization level was achieved (above 5000 response units). Three different therapeutic protein-binding ligands were measured—Antibody A's target antigen, Protein A, and D11 (an antibody that binds to erythropoietin). […] The remaining activated groups were blocked with 1.0 M ethanolamine-HCl, pH 8.5. […] Various UV-stressed antibody formulations were also diluted in HBS-EP buffer (pH 7.4) to a concentration within the standard curve region, and injected to quantitate the loss of bioactivity to its respective ligand-binding partner.

Data set [3] deals with Antibody A binding to protein A. In words: Binding of Antibody A to protein A (CM5 sensor chip) after UV-B exposure of the formulation. The following applies: 20 mM antioxidant; pH 5.20 acetate buffer; 302 nm UV light over 24 hours. The procedure: as §1
For data set [4], the system named is Antibody B binding to protein A. Description: Binding of Antibody B to protein A after UV-B exposure of the formulation. The following applies: 20 mM additive; pH 6.90 phosphate buffer; 0-24 hours UV-B. The procedure: (§2) For the examples below involving exposure to UVB radiation, each sample was exposed to UVB light (λ≈302 nm) for varying times, using a UVP 8W model UVLMS-38 lamp at 4° C. The formulations were then analyzed using size exclusion chromatography high pressure liquid chromatography (SEC-HPLC). Aggregation (measured via SEC-HPLC analysis) and binding (measured using CM5 gold sensor chips) were measured to determine the effect of the antioxidant on aggregation and bioactivity of the therapeutic protein.
The binding activity of therapeutic protein to a ligand (e.g. to an antibody or binding partner, or, in cases where the therapeutic was an antibody, binding activity to the specific target antigen or to protein A) was determined as follows. […] The therapeutic protein-binding ligand of interest was injected until the desired immobilization level was achieved (above 5000 response units). Three different therapeutic protein-binding ligands were measured—Antibody A's target antigen, Protein A, and D11 (an antibody that binds to erythropoietin). […] The remaining activated groups were blocked with 1.0 M ethanolamine-HCl, pH 8.5.
A standard curve was prepared by using native forms of the therapeutic protein of interest. Native forms of the therapeutic protein were diluted in HBS-EP buffer (pH 7.4) to concentrations between 1 and 5 μg/mL, and then injected on the column, prepared as described above to obtain a standard curve. At the end of each sample run, regeneration buffer was used to wash away any bound therapeutic protein in preparation for subsequent injections.
Various UV-stressed antibody formulations were also diluted in HBS-EP buffer (pH 7.4) to a concentration within the standard curve region, and injected to quantitate the loss of bioactivity to its respective ligand-binding partner.

The next data set relates to EPO. Description: SEC-HPLC aggregation/degradation of EPO after UV-B exposure. In kind it is physicochemical, human. As to conditions: 20 mM antioxidant; 1 mg/mL EPO, 25 mM sodium phosphate, 125 mM sodium chloride, pH 6.90; 302 nm UV-B 24 hours. The procedure: as §2, with “protein. The SEC-HPLC conditions were as follows: a G3000 TOSOH SWXL column was used and the flowrate was set at 0.5 mL/min. […] FIG. 4 (EPO), FIG. 5 (anti-streptavidin), and FIG. 6 (Antibody A) show SEC-HPLC chromatograms of each proteins following exposure to 302 nm UV-B light for 24 hours. […] Each formulation was then exposed to 302 nm UV-B light for 24 hours. The protein formulation was then analyzed using SEC-HPLC.” for “protein.”

Data set [5] relates to anti-streptavidin mAb (IgG2). Description: SEC-HPLC aggregation of anti-streptavidin (IgG2) after UV-B exposure. In kind it is physicochemical. As to conditions: 20 mM antioxidant; 1 mg/mL anti-streptavidin, 10 mM sodium acetate, 5% sorbitol, pH 5.00; 302 nm UV-B 24 hours.
In data set [6] the test system is anti-streptavidin (IgG2 antibody). Description: Thermal aggregation of anti-streptavidin at 52° C. for 10 days. It is filed as physicochemical. As to conditions: 5% glycerol; anti-streptavidin, 50 mM sodium acetate pH 5.00; 10 days 52° C. As to the method: The SEC-HPLC conditions were as follows: a G3000 TOSOH SWXL column was used and the flowrate was set at 0.5 mL/min. […] Anti-streptavidin was formulated in 50 mM sodium acetate at pH 5.00. These formulations were not exposed to UV radiation but assessed on their thermal stability.

In another data set the test system is Antibody A. Description: Discoloration (yellowing) of Antibody A formulations after UV-B exposure. It is filed as physicochemical. The following applies: 20 mM and 50 mM pyridoxine; Antibody A 30 mg/mL; UV-B 4 hours.
Data set [7] can be described thus: Color change of the antioxidant upon light. It is filed as physicochemical. From the text: P-amino benzoic acid (PABA) has a relatively powerful antioxidant effect.
Setting [8] is: 100 mM, Antibody A 1 mg/mL pH 5.00, UV 3 hours.
[9] abbreviates: 20 mM benzoic acid derivative, Antibody A 5 mg/mL, 20 mM sodium acetate pH 5.00, UV-B 4° C. 3 hours.
Setting [10] is: 5 mM or 1 mM preservative, Antibody A 1 mg/mL pH 5.00, UV 3 hours.

Regarding `CC(=O)N[C@@H](Cc1c[nH]c2ccccc12)C(=O)O` (racemic) [N-acetyl-tryptophan], the “EPO activity (binding to D11) after UV-B” value with EPO binding to D11 (20 mM racemic N-acetyl-tryptophan, 40 kU/mL EPO pH 6.90, UV 0 to 24 hours) is “preserved”. In [1], the solubility result is reported as “more soluble than free tryptophan”.

With `Nc1cc[nH]c(=O)n1` [Cytosine, cytosine], the “aggregation of Antibody A” value in the data set on Antibody A (IgG1) (25 mM cytosine (FIG. 21), Antibody A 1 mg/mL pH 5.00, UV 1, 2, or 3 hours) was “able to prevent aggregation”. For the compound `O=C(O)CO` [Glycolic acid, glycolic acid], the “UV-B protection of Antibody A (aggregation, SEC-HPLC)” value in the data set with Antibody A (IgG1) (100 mM) was “most effective”. Regarding `CCCOC(=O)c1cc(O)c(O)c(O)c1` [Propyl gallate, propyl gallate], the “aggregation of Antibody A (SEC-HPLC)” value with Antibody A (IgG1) (10 mM propyl gallate, pH 5.00, UV 3 hours) is given as “able to significantly reduce the amount of aggregation”.

On to `O=C(O)/C=C/c1ccc(O)c(O)c1` [caffeic acid], for which the “EPO binding activity to D11 during UV-B exposure” value in the data set on EPO binding to D11 was “able to protect the EPO from degradation and preserve its binding activity”. For `O=C(/C=C/c1ccc(O)c(O)c1)O[C@@H]1C[C@](O)(C(=O)O)C[C@@H](O)[C@H]1O` [chlorogenic acid], the “binding of Antibody A to its target antigen after UV exposure” value in data set [2] is on record as “preserved”. Further, the “binding of Antibody A to protein A after UV exposure” value in data set [3] was “preserved”. Moreover, the “binding of Antibody B to protein A after UV-B exposure” value in data set [4] is given as “prevented UV-B induced degradation”. The “binding of EPO to D11 mAb after UV light exposure” value in the data set on EPO binding to D11 (20 mM antioxidant, up to 24 hours UV) was “able to significantly preserve”. The “amount of aggregate of EPO (SEC-HPLC)” value in the data set with EPO is “dramatically reduced”. Moreover, the “amount of aggregate of anti-streptavidin (SEC-HPLC)” value in [5] is “dramatically reduced”. The “amount of aggregate of Antibody A (SEC-HPLC)” value with Antibody A (IgG1) (20 mM antioxidant, 1 mg/mL Antibody A, 10 mM sodium acetate, 9% sucrose, pH 5.20, 302 nm UV-B 24 hours) is on record as “dramatically reduced”.

Turning to `O=C(O)CC(O)(CC(=O)O)C(=O)O` [citric acid], the “UV-B protection of Antibody A (aggregation, SEC-HPLC)” value in the data set on Antibody A (IgG1) (100 mM) is “fairly weak”. As to `Oc1cc(O)c2c(c1)O[C@H](c1ccc(O)c(O)c1)[C@H](O)C2` [epicatechin], the solubility entry in data set [1] is “limited solubility”.

`O=C(O)/C=C/C(=O)O` [fumaric acid]: in the data set on Antibody A (IgG1) (setting [8]), the “aggregation of Antibody A (SEC-HPLC)” value is on record as “able to protect Antibody A from aggregation”. Take `O=C(O)c1cc(O)c(O)c(O)c1` [gallic acid]: in the data set on Antibody A (IgG1) (setting [9]), the “aggregation of Antibody A (SEC-HPLC)” value is on record as “able to significantly decrease the amount of aggregation”. `OCC(O)CO` [glycerol]: the “effect of added glycerol on thermal aggregation caused by ferulic and coumaric acid” value in [6] is on record as “counter-acted that thermal aggregation”.

For `Cc1cccc(O)c1` [m-cresol], in the data set on Antibody A (IgG1) (setting [10]), the “aggregation of Antibody A (SEC-HPLC)” value is reported as “able to significantly decrease the amount of aggregation”. On to `O=C(O)c1ccc(O)cc1` [p-hydroxybenzoic acid], for which the “aggregation of Antibody A (SEC-HPLC)” value in the data set with Antibody A (IgG1) (setting [9]) is “able to significantly decrease the amount of aggregation”. As to `Oc1ccccc1` [phenol], the “aggregation of Antibody A (SEC-HPLC)” value with Antibody A (IgG1) (setting [10]) is “able to significantly decrease the amount of aggregation”.

For the compound `O=C(O)c1ccc(O)c(O)c1` [protocatechuic acid], the “aggregation of Antibody A (SEC-HPLC)” value in the data set with Antibody A (IgG1) (setting [9]) is “able to significantly decrease the amount of aggregation”.

As to `Cc1ncc(CO)c(CO)c1O` [pyridoxine], the “oxidation and aggregation of Antibody A” value in the data set on Antibody A (IgG1) (20 mM and 50 mM pyridoxine, Antibody A 30 mg/mL, UV-B 4 hours) is “did protect the protein from oxidation and aggregation”. For the same compound, the “appearance of formulation upon exposure to UV radiation” value in the data set on Antibody A is “caused the formulation to appear yellow”. For the same compound, the “color change upon light” value in data set [7] is listed as “changes to an orange-brown color upon light”. Further, in data set [1], the solubility entry is reported as “highly soluble”.

With `O=C(O)C1=C[C@@H](O)[C@@H](O)[C@H](O)C1` [shikimic acid], the “aggregation of Antibody A (SEC-HPLC)” value with Antibody A (IgG1) (setting [8]) is “able to protect Antibody A from aggregation”.

As to `COc1cc(/C=C/C(=O)O)cc(OC)c1O` [sinapic acid], the “EPO binding activity to D11 during UV-B exposure” value with EPO binding to D11 was “able to protect the EPO from degradation and preserve its binding activity”. Take `COc1cc(O)c(C(=O)c2ccccc2)cc1S(=O)(=O)O` [sulisobenzone]: the “EPO binding to D11 after UV” value in the data set with EPO binding to D11 (5 mM sulisobenzone, EPO 40 kU/mL, pH 6.90, UV 0-8 hours at 4° C.) was “able to protect EPO binding to D11”. Take `COc1cc(C(=O)O)cc(OC)c1O` [syringic acid]: the “aggregation of Antibody A (SEC-HPLC)” value in the data set with Antibody A (IgG1) (setting [9]) is given as “able to significantly decrease the amount of aggregation”. Same read-out and setting: as for `COc1cc(C(=O)O)ccc1O` [vanillic acid], the entry is “able to significantly decrease the amount of aggregation”. Take catechin: the “percent binding of EPO to D11 after UV” value in the data set on EPO binding to D11 (20 mM catechin, EPO 40 kU/mL, 25 mM sodium phosphate, 125 mM sodium chloride, 0.005% Tween-80, pH 6.90, UV 0-8 hours) is reported as “able to preserve EPO binding”.
